Results published in US9561237B1, “Bis-(triethylphosphine)platinum(II) complexes with thiones as anti cancer agents” (KING FAHD UNIVERSITY OF PETROLEUM AND MINERALS, priority 2016, dated 2017).

Columns and labels:
Assay type in all cases: cell-based
[1] = test system: HeLa (human cervical cancer) cell line; assay: In vitro cytotoxic activity, MTT assay, HeLa; conditions: for IC50: 50, 25, 12.5 and 6.25 μM, three independent experiments, read-out: IC50 ± SEM (50% cell growth inhibition), HeLa; for Cytotoxic activity in words (comparison): 6.2 μM to 50 μM
Method: (§1) A Pt(II) metal precursor, cisplatin, carboplatin and seven synthesized complexes (1)-(7) were evaluated for their in-vitro cytotoxic activity against HeLa (human cervical cancer), A549 (human lung cancer), MCF-7 (human breast cancer) and HTC15 (human colon cancer) cell lines.
(§2) The cells were seeded at 4×10^3 cells/well in 100 μL DMEM (Dulbecco's Modified Eagle's Medium) containing 10%. FBS (Fetal Bovine Serum) in 96-well tissue culture plate and incubated for 72 h at 37° C., 5% CO2 in air and 90% relative humidity in CO2 incubator. […] The medium of wells was discarded and 100 μL DMEM containing MTT (3-(4,5-dimethylthiazol-2-Yl)-2,5-diphenyltetrazolium bromide) (5 mg/mL) was added to the wells and incubated in CO2 incubator at 37° C. in dark for 4 h. After incubation, a purple colored formazan (artificial chromogenic dye, product of the reduction of water insoluble tetrazolium salts e.g., MMT by dehydrogenases and reductases) in the cells is produced and appeared as dark crystals in the bottom of the wells. The medium of culture was discarded from each well carefully to avoid disruption of monolayer and 100 μL of dimethylsufoxide (DMSO) was added in each well. The solution was thoroughly mixed in the wells to dissolve the formazan crystals which ultimately result into a purple solution. The absorbance of the 96-wells plate was taken at 570 nm with Labsystems Multiskan EX-Enzyme-linked immunosorbent assay (EX-ELISA) reader against a reagent blank. The IC50 values were calculated from three independent experiments by generating an equation of logarithmic trendline of percentage cell viability against concentration of compounds in Microsoft Excel.
(§3) Preliminary anti-cancer activity studies were carried out on seven synthesized Pt(II) complexes (1)-(7), Pt(II) precursor, cisplatin and carboplatin against four cancer cell lines HeLa, A549, HCT15 and MCF-7 (human cancer cell lines) and an MTT assay was used to determine their dose-dependent cytotoxicity after 72 h [U. Bierbach, T. W. Hambly, N. Farrell, Inorg.
(§4) The MTT assay was performed in three independent experiments, each in triplicate. The cancer cell lines used are HeLa (human cervical cancer), A549 (human lung cancer), MCF-7 (human breast cancer) and HCT15 (human colon cancer) cell lines.

[2] = test system: A549 (human lung cancer) cell line; assay: In vitro cytotoxic activity, MTT assay, A549; conditions: for IC50: 50, 25, 12.5 and 6.25 μM, three independent experiments, read-out: IC50 ± SEM (50% cell growth inhibition), A549; for Cytotoxic activity in words (comparison): 6.2 μM to 50 μM
Method: as §1, §2, §3, §4

[3] = test system: MCF-7 (human breast cancer) cell line; assay: In vitro cytotoxic activity, MTT assay, MCF-7; conditions: for IC50: MCF7, 50, 25, 12.5 and 6.25 μM, three independent experiments, read-out: IC50 ± SEM (50% cell growth inhibition), MCF7; for Cytotoxic activity in words (comparison): MCF-7, 6.2 μM to 50 μM
Method: as §1, §2, §3, §4

[4] = test system: HCT15 (human colon cancer) cell line; assay: In vitro cytotoxic activity, MTT assay, HCT15; conditions: for IC50: 50, 25, 12.5 and 6.25 μM, three independent experiments, read-out: IC50 ± SEM (50% cell growth inhibition), HCT15; for Cytotoxic activity in words (comparison): 6.2 μM to 50 μM
Method: as §1, §2, §3, §4

N.N.O=C([O-])C1(C(=O)[O-])CCC1.[Pt+2] [Carboplatin, carboplatin, reference compound]
IC50 [1]: 56.5 ± 2.23 µM
IC50 [2]: 71.2 ± 2.84 µM
IC50 [3]: 55.6 ± 2.53 µM
IC50 [4]: 63.9 ± 2.25 µM

N.N.[Cl][Pt][Cl] [Cisplatin, cis-diaminedichlorido platinum(II) complex cis-[(NH3)2PtCl2], reference compound]
IC50 [1]: 19.2 ± 1.81 µM
IC50 [2]: 41.7 ± 1.17 µM
IC50 [3]: 22.4 ± 1.37 µM
IC50 [4]: 29.7 ± 2.35 µM

CC[PH](CC)(CC)[Pt+2]([SH]=C1NCCN1)([SH]=C1NCCN1)[PH](CC)(CC)CC.[Cl-].[Cl-] [Complex (1), cis-bis(triethylphosphine)di(imidazolidine-2-thione)platinum(II)]
IC50 [1]: 1.4 ± 0.29 µM
IC50 [2]: 3.5 ± 0.74 µM
IC50 [3]: 4.67 ± 1.05 µM
IC50 [4]: 7.03 ± 1.04 µM

CC[PH](CC)(CC)[Pt+2]([SH]=C1N(C)CCN1C)([SH]=C1N(C)CCN1C)[PH](CC)(CC)CC.[Cl-].[Cl-] [Complex (3), cis-bis(triethylphosphine)di(1,3-dimethylimidazolidine-2-thione)platinum(II)]
Cytotoxic activity in words (comparison) [1]: most effective against all cancer cell lines
IC50 [1]: 1.5 ± 0.21 µM
Cytotoxic activity in words (comparison) [2]: most effective against all cancer cell lines
IC50 [2]: 2.37 ± 0.29 µM
IC50 [3]: 3.77 ± 0.61 µM
Cytotoxic activity in words (comparison) [3]: most effective against all cancer cell lines
Cytotoxic activity in words (comparison) [4]: most effective against all cancer cell lines
IC50 [4]: 4.23 ± 0.73 µM

CCN1CCN(CC)C1=[SH][Pt+2]([SH]=C1N(CC)CCN1CC)([PH](CC)(CC)CC)[PH](CC)(CC)CC.[Cl-].[Cl-] [Complex (4), cis-bis(triethylphosphine)di(1,3-diethylimidazolidine-2-thione)platinum(II)]
IC50 [1]: 9.9 ± 1.65 µM
IC50 [2]: 12.6 ± 1.09 µM
IC50 [3]: 13.5 ± 1.36 µM
IC50 [4]: 16.1 ± 1.13 µM

CCN1CCCNC1=[SH][Pt+2]([SH]=C1NCCCN1CC)([PH](CC)(CC)CC)[PH](CC)(CC)CC.[Cl-].[Cl-] [Complex (6)]
Cytotoxic activity in words (comparison) [1]: better than cisplatin and carboplatin
IC50 [1]: 1.83 ± 0.35 µM
Cytotoxic activity in words (comparison) [2]: better than cisplatin and carboplatin
IC50 [2]: 3.6 ± 0.72 µM
IC50 [3]: 1.23 ± 0.34 µM
Cytotoxic activity in words (comparison) [3]: highest activity
Cytotoxic activity in words (comparison) [4]: better than cisplatin and carboplatin
IC50 [4]: 5.7 ± 0.91 µM

CC[PH](CC)(CC)[Pt+2]([SH]=C1NCCCCN1)([SH]=C1NCCCCN1)[PH](CC)(CC)CC.[Cl-].[Cl-] [Complex (7), cis-bis(triethylphosphine)di(1,3-diazepane-thione)platinum(II)]
IC50 [1]: 17.3 ± 1.34 µM
IC50 [2]: 27.7 ± 1.48 µM
IC50 [3]: 22.3 ± 1.35 µM
IC50 [4]: 37.1 ± 1.86 µM

CCP(CC)CC.CCP(CC)CC.[Cl][Pt][Cl] [Pt(II) precursor, cis-Bis(triethylphosphine)platinum(II)chloride, reference compound]
IC50 [1]: 45.8 ± 2.33 µM
IC50 [2]: 55.6 ± 2.53 µM
IC50 [3]: 59.8 ± 2.15 µM
IC50 [4]: 39.1 ± 1.98 µM

cis-bis(triethylphosphine)di(1-methylimidazolidine-2-thione)platinum(II) [Complex (2)]
IC50 [1]: 1.83 ± 0.26 µM
IC50 [2]: 3.93 ± 0.47 µM
IC50 [3]: 2.63 ± 0.88 µM
IC50 [4]: 8.6 ± 0.93 µM

cis-bis(triethylphosphine)di(tetrahydropyrimidine-2(1H)-thione)platinum(II) [Complex (5)]
IC50 [1]: 2.23 ± 0.52 µM
IC50 [2]: 4.5 ± 0.78 µM
IC50 [3]: 4.73 ± 0.95 µM
IC50 [4]: 6.87 ± 1.07 µM
